This note sets out measurements from PubChem BioAssay (NCI).

Assay in all cases: growth of human tumour cells (NCI), 48 h
For experiment [1], the system named is HOP-62 NSCLC.
The subject of experiment [2] is OVCAR-3 ovarian.
Experiment [3] has as its system SN12C renal.
The test system of experiment [4] is M14 melanoma.
For experiment [5], the system named is OVCAR-5 ovarian.
The subject of experiment [6] is ACHN renal.
Experiment [7] concerns HCT-15 colon.
The subject of experiment [8] is K-562 leukemia.
The subject of experiment [9] is RXF 393 renal.
In experiment [10] the test system is OVCAR-8 ovarian.

Molecules are shown by their SMILES.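 Each compound was tested at five concentrations against cells in 96-well plates for 48 hours. GI50: concentration for 50% inhibition of growth. TGI: concentration producing complete growth inhibition.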

Take `Oc1ccc(NCn2c(=S)sc3ccccc32)cc1`: the TGI in [1], in experiment [2], in experiment [3], in experiment [4], in [5] and in experiment [6] was > 100 µM throughout. Further, the TGI in experiment [7], in [8], in [9] and in [10] was > 100 µM each time.

In the case of `CON(C)C(=O)C(Cc1ccccc1)NC(=O)OCc1ccccc1` (configuration not stated), the TGI in experiment [1], in experiment [2], in [3], in [4], in experiment [5] and in experiment [6] was > 100 µM throughout. In addition, the TGI in experiment [7], in [8], in experiment [9] and in [10] was > 100 µM in each case.

On to `CO[C@](C(=O)OC[C@H]1[C@@H](COC(C)=O)[C@@H]2O[C@H]1c1cc3c(cc12)OCO3)(c1ccccc1)C(F)(F)F`, for which the TGI was 73.6 µM in experiment [1]; > 100 µM in experiment [2]; > 100 µM in [3]; > 100 µM in [4]; > 100 µM in [5]; > 100 µM in [7].

As for `CCCCCCOc1ccc(/C=N/Nc2cc(C)nc3ccc(Cl)cc23)cc1`, the GI50 in experiment [1] is 1.55 µM; in [2] it was 2.05 µM; in [3] it was 1.69 µM; in experiment [4], 1.71 µM; in experiment [5], 1.92 µM; in experiment [6], 1.71 µM. For the same molecule, the GI50 in experiment [7] is 1.27 µM; in [8], 0.467 µM; in [9], 1.56 µM; in experiment [10] it was 1.91 µM. For the same molecule, the TGI came to 3.08 µM in experiment [1]; 3.74 µM in [2]; 3.18 µM in experiment [3]; 3.36 µM in [4]; 3.35 µM in experiment [5]; 3.08 µM in [6]. The TGI in experiment [7] was found to be 2.55 µM; in experiment [8], 2.22 µM; in experiment [9], 2.97 µM; in experiment [10], 4.21 µM.

As for `CCn1cnc2c(=S)nc(N)[nH]c21`, the TGI in [1], in experiment [2], in experiment [3], in experiment [4], in experiment [6] and in [7] was > 100 µM in each case. In addition, the TGI in experiment [8], in experiment [9] and in [10] was > 100 µM throughout.

In the case of `O=C(CC1Sc2ccccc2NC1=O)Nc1ccccc1[N+](=O)[O-]` (configuration not stated), the TGI in [1], in experiment [2], in experiment [3], in [4], in experiment [5] and in [6] was > 100 µM each time. The TGI in experiment [7], in experiment [8], in experiment [9] and in experiment [10] was > 100 µM throughout.

In the case of `Cc1ccc(C(=O)OC(C(=O)O)C(OC(=O)c2ccc(C)cc2)C(=O)O)cc1` (configuration not stated) (tested in a mixture with another compound), the TGI was found to be 29.2 µM in experiment [1]; 22.4 µM in experiment [2]; 32 µM in [3]; 24.6 µM in experiment [5]; 17.6 µM in experiment [7]; 7.87 µM in experiment [8]. For the same molecule, the TGI amounted to 16 µM in [9] and 31.6 µM in experiment [10].

As to `O=C1OC(c2ccccc2)=N/C1=C\c1ccc([N+](=O)[O-])cc1`, the TGI was > 100 µM in [1]; > 100 µM in [2]; > 100 µM in experiment [3]; > 100 µM in experiment [4]; > 100 µM in [5]; 40.5 µM in experiment [6]. Also, the TGI in experiment [7], in experiment [8], in experiment [9] and in experiment [10] was > 100 µM each time.

`CCOC(=O)c1csc(NC(=O)CN2CCCC2)n1`: the TGI in experiment [1], in experiment [2], in experiment [4], in [5], in [6] and in experiment [7] was > 100 µM throughout. The TGI in experiment [8], in experiment [9] and in experiment [10] was > 100 µM throughout.
